Test results: ChEMBL document CHEMBL5226286, “The application of isatin-based multicomponent-reactions in the quest for new bioactive and druglike molecules” (Eur J Med Chem, 2021)
Converted amounts (≈) assume the structure as drawn.

Experiments:
[1] = system: Saccharomyces cerevisiae; assay: Antifungal activity against Saccharomyces cerevisiae MTCC 170; type: functional
[2] = system: Candida albicans; assay: Antifungal activity against Candida albicans MTCC 227; type: functional
[3] = system: Staphylococcus aureus; assay: Antibacterial activity against Staphylococcus aureus by agar well diffusion method; type: functional
[4] = system: Bacillus subtilis; assay: Antibacterial activity against Bacillus subtilis by agar well diffusion method; type: functional
[5] = system: Escherichia coli; assay: Antibacterial activity against Escherichia coli by agar well diffusion method; type: functional
[6] = system: Tobacco mosaic virus; assay: Antiviral activity against Tobacco mosaic virus assessed as curative effect relative to control; type: functional
[7] = system: Tobacco mosaic virus; assay: Antiviral activity against Tobacco mosaic virus assessed as protection effect relative to control; type: functional
[8] = system: Tobacco mosaic virus; assay: Antiviral activity against Tobacco mosaic virus assessed as inactivation effect relative to control; type: functional
[9] = system: Staphylococcus aureus; assay: microbe, parasite or virus in culture
[10] = system: Escherichia coli; assay: microbe, parasite or virus in culture
[11] = system: Bacillus subtilis; assay: Antibacterial activity against Bacillus subtilis; type: functional
[12] = system: MCF7; assay: Antiproliferative activity against human MCF7 cells by MTT reduction assay; type: functional, cell-based
[13] = system: A549; assay: Antiproliferative activity against human A549 cells by MTT reduction assay; type: functional, cell-based
[14] = system: HepG2; assay: Antiproliferative activity against human HepG2 cells by MTT reduction assay; type: functional, cell-based
[15] = system: HeLa; assay: Cytotoxicity against human HeLa cells incubated for 24 hrs by MTT reduction assay; type: functional, cell-based
[16] = system: SK-N-SH; assay: Antiproliferative activity against human SK-N-SH cells by MTT reduction assay; type: functional, cell-based
[17] = system: CCRF-CEM; assay: Antiproliferative activity against human CCRF-CEM cells; type: functional, cell-based
[18] = system: SK-OV-3; assay: Antiproliferative activity against human SK-OV-3 cells; type: functional, cell-based
[19] = biological target: T1, NAD-dependent protein deacetylase sirtuin-2 (Homo sapiens, UniProt Q8IXJ6); assay: Inhibition of sirtuin 2 (unknown origin)
T1 sequence (Q8IXJ6 whole entry): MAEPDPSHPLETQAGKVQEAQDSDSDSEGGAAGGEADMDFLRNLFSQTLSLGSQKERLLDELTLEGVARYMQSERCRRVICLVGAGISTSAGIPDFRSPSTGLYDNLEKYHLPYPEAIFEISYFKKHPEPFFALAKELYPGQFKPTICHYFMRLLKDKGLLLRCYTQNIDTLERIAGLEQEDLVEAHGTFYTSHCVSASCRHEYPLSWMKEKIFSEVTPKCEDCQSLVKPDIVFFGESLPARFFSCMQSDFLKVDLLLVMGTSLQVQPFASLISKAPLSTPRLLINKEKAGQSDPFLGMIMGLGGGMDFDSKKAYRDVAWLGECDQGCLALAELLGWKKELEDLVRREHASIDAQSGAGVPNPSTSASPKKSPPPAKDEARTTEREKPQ

[20] = system: HCT-116; assay: Antiproliferative activity against human HCT-116 cells; type: functional, cell-based
[21] = system: HepG2; assay: cells; type: functional, cell-based; conditions: Homo sapiens
[22] = system: PC-3; assay: Antiproliferative activity against human PC-3 cells; type: functional, cell-based
[23] = system: HepG2; assay: Growth inhibition of human HepG2 cells at 20 micromol relative to control; type: functional; conditions: dose 20 µmol
[24] = system: HeLa; assay: Growth inhibition of human HeLa cells at 20 micromol relative to control; type: functional; conditions: dose 20 µmol
[25] = system: MDA-MB-231; assay: Growth inhibition of human MDA-MB-231 cells at 20 micromol relative to control; type: functional; conditions: dose 20 µmol
[26] = system: HCT-116; assay: Cytotoxicity against human HCT-116 cells; type: functional, cell-based
[27] = system: Syncephalastrum racemosum; assay: Antifungal activity against Syncephalastrum racemosum RCMB 05922 assessed as zone of inhibition; type: functional
[28] = system: Candida tropicalis; assay: Antifungal activity against Candida tropicalis; type: functional
[29] = system: Aspergillus fumigatus; assay: Antifungal activity against Aspergillus fumigatus RCMB 02568; type: functional
[30] = system: Geotrichum candidum; assay: Antifungal activity against Geotrichum candidum RCMB 05097 assessed as zone of inhibition; type: functional
[31] = system: Candida albicans; assay: Antifungal activity against Candida albicans RCMB 05036; type: functional
[32] = system: Candida albicans; assay: Antifungal activity against Candida albicans; type: functional
[33] = system: Nakaseomyces glabratus; assay: Antifungal activity against Candida glabrata; type: functional
[34] = system: Leishmania major; assay: Antileishmanial activity against Leishmania major promastigotes incubated for 72 hrs by micrscopic analysis; type: functional
[35] = system: Syncephalastrum racemosum; assay: Antifungal activity against Syncephalastrum racemosum RCMB 05922; type: functional
[36] = system: Candida albicans; assay: Antifungal activity against Candida albicans RCMB 05036 assessed as zone of inhibition; type: functional
[37] = system: Geotrichum candidum; assay: Antifungal activity against Geotrichum candidum RCMB 05097; type: functional
[38] = system: Aspergillus fumigatus; assay: Antifungal activity against Aspergillus fumigatus RCMB 02568 assessed as zone of inhibition; type: functional

For COc1ccc(-n2cc(CN3C(=O)C4(C(C#N)=C(N)OC5=C4C(=O)CC(C)(C)C5)c4ccccc43)nn2)cc1 (stereo not given), the MIC [1] was 64 µg/mL (≈ 122 µM) and the MIC [2] was 128 µg/mL (≈ 245 µM).
CC1(C)CC(=O)C2=C(C1)N(c1ccccc1)C(=O)C21C2=C(Nc3ccc([N+](=O)[O-])cc31)c1ccccc1C2=O (stereo not given) was tested, and the MIC [3] was 16 µg/mL (≈ 30.9 µM), the MIC [4] was 16 µg/mL (≈ 30.9 µM) and the MIC [5] was 128 µg/mL (≈ 247 µM).
COc1ccc([C@@H]2CN(C)[C@]3(C(=O)N(C)c4ccccc43)[C@]23Oc2cc(O)ccc2C3=O)cc1 was tested, and the Activity [6] was 47.3%, the Activity [7] was 51.2% and the Activity [8] was 55.1%.
Cc1nn(-c2ccccc2)c2c1C1(C(=O)Nc3ccc(Br)cc31)C1=C(CCCC1=O)O2 (stereo not given) was tested, and the MIC [9] was 128 µg/mL (≈ 269 µM), the MIC [10] was 256 µg/mL (≈ 537 µM) and the MIC [11] was 12 µg/mL (≈ 25.2 µM).
For Cc1cc2c(cc1C)C(Cl)=C(C1C3CCCN3C3(C(=O)Nc4ccc([N+](=O)[O-])cc43)C1C(=O)c1ccccc1)CCC2 (stereo not given), the IC50 [12] was 7.3 µM, the IC50 [13] was 5.6 µM and the IC50 [14] was 20 µM. The IC50 [15] was 3.8 µM and the IC50 [16] was 11 µM.
Cc1ccccc1/C=C1\CNC[C@@]2(C1=O)[C@@H](c1ccccc1C)C1CCCN1[C@]21C(=O)Nc2ccccc21 (stereo not given in full) gave an IC50 [17] of 3.6 µM and an IC50 [18] of 35.8 µM.
CNCC(=O)N[C@@H](CO)C(=O)N[C@H]1[C@H](O)[C@@H](O)[C@H](n2ccc(N)nc2=O)O[C@@H]1C(N)=O [NINGNANMYCIN] showed an Activity [6] of 55.9%, an Activity [7] of 57.1% and an Activity [8] of 58.8%.
CCOC(=O)C1=C(N)Oc2cc(C)oc(=O)c2C12C(=O)Nc1ccc(Br)cc12 (stereo not given) showed an IC50 [19] of 124 µM.
In the case of O=C(c1c[nH]c2ccccc12)[C@@H]1[C@@H](c2ccc(C(F)(F)F)cc2)[C@@H]2CSCN2[C@@]12C(=O)Nc1ccccc12, the IC50 [20] is reported as 7 µM, the IC50 [21] is reported as 5.5 µM and the IC50 [22] is reported as 6 µM.
Cc1ccc(/C=C2/CN(C)CC3=C2OC(N)=C(C#N)C32C(=O)Nc3ccccc32)cc1C (stereo not given) was tested, and the “growth inhibition (GI)” value [23] was 70.2%, the “growth inhibition (GI)” value [24] was 87.1% and the “growth inhibition (GI)” value [25] was 64.9%.
Work on Cc1cc2c(cc1C)C(Cl)=C(C1C3CCCN3C3(C(=O)Nc4ccc(I)cc43)C1C(=O)c1ccccc1)CCC2 (stereo not given) yielded an IC50 [12] of 8.3 µM, an IC50 [13] of 15.9 µM and an IC50 [14] of 8.7 µM. For the same compound, the IC50 [15] was 3.8 µM and the IC50 [16] was 5 µM.
O=C1/C(=C/c2ccccc2)CNC[C@]12[C@@H](c1ccccc1)C1CCCN1[C@]21C(=O)Nc2ccccc21 (stereo not given in full) was tested, and the IC50 [17] was 25.2 µM and the IC50 [18] was 38.9 µM.
O=C(N[C@H](CO)[C@H](O)c1ccc([N+](=O)[O-])cc1)C(Cl)Cl [CHLORAMPHENICOL] showed an MIC [9] of 8 µg/mL (≈ 24.8 µM), an MIC [10] of 4 µg/mL (≈ 12.4 µM) and an MIC [11] of 4 µg/mL (≈ 12.4 µM).
In the case of N#CC1=C(N)OC2=C(CSC/C2=C/c2ccc(C(F)(F)F)cc2)C12C(=O)Nc1ccccc12 (stereo not given), the “growth inhibition (GI)” value [23] is reported as 73.1%, the “growth inhibition (GI)” value [24] is reported as 83.2% and the “growth inhibition (GI)” value [25] is reported as 61.3%.
With CC1(C)CC(=O)C2=C(C1)N(c1ccc(Cl)cc1)C(=O)C21C2=C(Nc3ccccc31)c1ccccc1C2=O (stereo not given) the MIC [3] was 16 µg/mL (≈ 31.6 µM), the MIC [4] was 8 µg/mL (≈ 15.8 µM) and the MIC [5] was 64 µg/mL (≈ 126 µM).
For O=C1CCCC2=C1C1(C(=O)N2c2ccc(Cl)cc2)C2=C(Nc3ccc([N+](=O)[O-])cc31)c1ccccc1C2=O (stereo not given), the MIC [3] was 32 µg/mL (≈ 61.1 µM), the MIC [4] was 32 µg/mL (≈ 61.1 µM) and the MIC [5] was 128 µg/mL (≈ 244 µM).
Compound O=C(c1c(O)c2ccccc2[nH]c1=O)[C@@H]1[C@@H](c2ccccc2Cl)C(c2ccccc2)N[C@@]12C(=O)Nc1ccccc12 (stereo not given in full) has an IC50 [26] of 7.1 µM.
With C[C@@H]1[C@H](O)[C@@H](C)/C=C/C=C/C=C/C=C/C=C/C=C/C=C/[C@H](O[C@@H]2O[C@H](C)[C@@H](O)[C@H](N)[C@@H]2O)C[C@@H]2O[C@](O)(C[C@@H](O)C[C@@H](O)[C@H](O)CC[C@@H](O)C[C@@H](O)CC(=O)O[C@H]1C)C[C@H](O)[C@H]2C(=O)O [AMPHOTERICIN B] the “diameter of the inhibition zone (DIZ)” value [27] was 22.1 mm, the MIC [28] was 12.5 µg/mL (≈ 13.5 µM) and the MIC [29] was 0.015 µg/mL (≈ 0.0162 µM). For the same compound, the MIC [1] was 100 µg/mL (≈ 108 µM), the “diameter of the inhibition zone (DIZ)” value [30] was 29 mm and the MIC [31] was 0.06 µg/mL (≈ 0.0649 µM). For the same compound, the MIC [32] was 12.5 µg/mL (≈ 13.5 µM), the MIC [2] was 100 µg/mL (≈ 108 µM) and the MIC [33] was 12.5 µg/mL (≈ 13.5 µM). The MIC [34] was 0.49 µM (≈ 0.453 µg/mL), the MIC [35] was 1.95 µg/mL (≈ 2.11 µM) and the “diameter of the inhibition zone (DIZ)” value [36] was 26 mm. For the same compound, the MIC [37] was 0.015 µg/mL (≈ 0.0162 µM) and the “diameter of the inhibition zone (DIZ)” value [38] was 23 mm.
CN1C[C@@H](c2ccccc2)[C@@]2(Oc3cc(O)ccc3C2=O)[C@@]12C(=O)N(Cc1ccccc1)c1ccccc12 showed an Activity [6] of 52.3%, an Activity [7] of 50.9% and an Activity [8] of 57.1%.
